Where a name gives a salt, the structure may show the parent alone.
System: LP-1 cell line
Assay: Cell-based pERK ELISA method, LP-1 cells
Settings: Homo sapiens, LP-1, read-out: IC50 less than 1 μM or at least 50% inhibition at a concentration of 1 μM, LP-1 pERK ELISA

| IC50 | Compound |
| --- | --- |
| < 1000 nM | O=C(NCC(F)(F)F)Nc1cccc(-c2cnc3cc(-c4ccnc(OC5CCOCC5)c4)ccn23)c1 [Example 212, 1-(3-{7-[2-(Tetrahydro-pyran-4-yloxy)-pyridin-4-yl]-imidazo[1,2-a]pyridin-3-yl}-phenyl)-3-(2,2,2-trifluoro-ethyl)-urea] |
| < 1000 nM | N#Cc1cc(NC(=O)NCC(F)(F)F)cc(-c2cnc3cc(-c4ccc(F)cc4)ccn23)c1 [Example 214, 1-{3-Cyano-5-[7-(4-fluoro-phenyl)-imidazo[1,2-a]pyridin-3-yl]-phenyl}-3-(2,2,2-trifluoro-ethyl)-urea] |
| < 1000 nM | CCNC(=O)Nc1cc(OC)cc(-c2cnc3cc(-c4ccc(F)cc4)ccn23)c1 [Example 216, 1-Ethyl-3-{3-[7-(4-fluoro-phenyl)-imidazo[1,2-a]pyridin-3-yl]-5-methoxy-phenyl}-urea] |
| < 1000 nM | COc1cc(NC(=O)NCC(F)(F)F)cc(-c2cnc3cc(-c4ccc(F)cc4)ccn23)c1 [Example 217, 1-{3-[7-(4-Fluoro-phenyl)-imidazo[1,2-a]pyridin-3-yl]-5-methoxy-phenyl}-3-(2,2,2-trifluoro-ethyl)-urea] |
| < 1000 nM | O=C(NCC(F)(F)F)Nc1cncc(-c2cnc3cc(-c4ccc(F)cc4)ccn23)c1 [Example 218, 1-{5-[7-(4-Fluoro-phenyl)-imidazo[1,2-a]pyridin-3-yl]-pyridin-3-yl}-3-(2,2,2-trifluoro-ethyl)-urea] |
| < 1000 nM | O=C(NCC(F)(F)F)Nc1cccc(-c2cnc3cc(-c4cccc(CO)c4)ccn23)c1 [Example 219, 1-{3-[7-(3-Hydroxy-methyl-phenyl)-imidazo[1,2-a]pyridin-3-yl]-phenyl}-3-(2,2,2-trifluoro-ethyl)-urea] |
| < 1000 nM | CN1CCN(C(=O)c2cccc(-c3ccn4c(-c5cccc(NC(=O)NCC(F)(F)F)c5)cnc4c3)c2)CC1 [Example 220, 1-(3-{7-[3-(4-Methyl-piperazine-1-carbonyl)-phenyl]-imidazo[1,2-a]pyridin-3-yl}-phenyl)-3-(2,2,2-trifluoro-ethyl)-urea] |
| < 1000 nM | Cc1ccn2c(-c3cccc(NC(=O)NCC(F)(F)F)c3)cnc2c1 [Example 225] |
| < 1000 nM | CCNC(=O)Nc1cccc(-c2cnc3cc(-c4cccc(CN5CCN(C)CC5)c4)ccn23)c1 [Example 227] |
| < 1000 nM | O=C(NCC(F)(F)F)Nc1cccc(-c2cnc3cc(Cl)ccn23)c1 [Example 228] |
| < 1000 nM | O=C(NCC(F)F)Nc1cccc(-c2cnc3cc(-c4ccc(F)cc4)ccn23)c1 [Example 229, 1-(2,2-Difluoro-ethyl)-3-{3-[7-(4-fluoro-phenyl)-imidazo[1,2-a]pyridin-3-yl]-phenyl}-urea Hydrochloride] |
| < 1000 nM | Cc1nn(C)c(C)c1-c1ccn2c(-c3cccc(NC(=O)NCC(F)(F)F)c3)cnc2c1 [Example 234, 1-(2,2,2-Trifluoro-ethyl)-3-{3-[7-(1,3,5-trimethyl-1H-pyrazol-4-yl)-imidazo[1,2-a]pyridin-3-yl]-phenyl}-urea] |
| < 1000 nM | CC(C)Oc1cc(NC(=O)NCC(F)(F)F)cc(-c2cnc3cc(-c4ccc(F)cc4)ccn23)c1 [Example 238, 1-{3-[7-(4-Fluoro-phenyl)-imidazo[1,2-a]pyridin-3-yl]-5-isopropoxy-phenyl}-3-(2,2,2-trifluoro-ethyl)-urea] |
| < 1000 nM | CS(=O)(=O)NCc1cccc(-c2ccn3c(-c4cccc(NC(=O)NCC(F)(F)F)c4)cnc3c2)c1 [Example 239, N-[3-(3-{3-[3-(2,2,2-Trifluoro-ethyl)-ureido]-phenyl}-imidazo[1,2-a]pyridin-7-yl)-benzyl]-methane-sulfonamide] |
| < 1000 nM | O=C(NCC(F)(F)F)Nc1cccc(-c2cnc3cc(-c4cnco4)ccn23)c1 [Example 240, 1-[3-(7-Oxazol-5-yl-imidazo[1,2-a]pyridin-3-yl)-phenyl]-3-(2,2,2-trifluoro-ethyl)-urea] |

Source: patent US8895745B2, “Bicyclic heterocyclic compounds as FGFR inhibitors” (Astex Therapeutics Limited, priority 2006, dated 2014)
